# Reference: patent US11492405B2, “Reducing systemic regulatory t cell levels or activity for treatment of disease and injury of the CNS” (Yeda Research and Development Co. Ltd, priority 2014, dated 2022)
# Entries after “also recorded” stand apart in the source; their conditions may differ.
# Tests used:
# Foxp3+ Tregs = assay: Conditional ablation of Treg by DTx, flow cytometry of blood and spleen; assay type: in vivo, mouse
# Procedure: (§1) Mice were transcardially perfused with PBS, and tissues were treated as previously described (Baruch et al, 2013). Brains were dissected and the different brain regions were removed under a dissecting microscope (Stemi DV4; Zeiss) in PBS, and tissues were dissociated using the gentleMACS™ dissociator (Miltenyi Biotec). Choroid plexus tissues were isolated from the lateral, third and fourth ventricles of the brain, incubated at 37° C. for 45 min in PBS (with Ca^2+/Mg^2+) containing 400 U/ml collagenase type IV (Worthington Biochemical Corporation), and then manually homogenized by pipetting. Spleens were mashed with the plunger of a syringe and treated with ACK (ammonium chloride potassium) lysing buffer to remove erythrocytes. In all cases, samples were stained according to the manufacturers' protocols. All samples were filtered through a 70 μm nylon mesh, and blocked with anti-Fc CD16/32 (1:100; BD Biosciences). For intracellular staining of IFN-γ, the cells were incubated with […] (10 ng/ml; Sigma-Aldrich) and ionomycin (250 ng/ml; Sigma-Aldrich) for 6 h, and Brefeldin-A (10 μg/ml; Sigma-Aldrich) was added for the last 4 h. Intracellular labeling of cytokines was done with BD Cytofix/Cytoperm™ Plus fixation/permeabilization kit (cat. no. 555028). […] Cells were analyzed on an LSRII cytometer (BD Biosciences) using FlowJo software. […]
# 5XFAD AD-Tg mice [1] = assay: Aβ plaque quantitation (immunohistochemistry) in 5XFAD AD-Tg mice; assay type: in vivo, mouse; conditions: AD-Tg/Foxp3-DTR+ mice, 3 weeks after last DTx injection
# Procedure: Tissue processing and immunohistochemistry were performed on paraffin embedded sectioned mouse (6 μm thick) and human (10 μm thick) brains. For human ICAM-1 staining, primary mouse anti-ICAM (1:20 Abcam; ab2213) antibody was used. Slides were incubated for 10 min with 3% H2O2, and a secondary biotin-conjugated anti-mouse antibody was used, followed by biotin/avidin amplification with Vectastain ABC kit (Vector Laboratories). Subsequently, 3,3′-diaminobenzidine (DAB substrate) (Zytomed kit) was applied; slides were dehydrated and mounted with xylene-based mounting solution. For tissue stainings, mice were transcardially perfused with PBS prior to tissue excision and fixation. CP tissues were isolated under a dissecting microscope (Stemi DV4; Zeiss) from the lateral, third, and fourth ventricles of the brain. For whole mount CP staining, tissues were fixated with 2.5% paraformaldehyde (PFA) for 1 hour at 4° C., and subsequently transferred to PBS containing 0.05% sodium azide. Prior to staining, the dissected tissues were washed with PBS and blocked (20% horse serum, 0.3% Triton X-100, and PBS) for 1 h at room temperature. Whole mount staining with primary antibodies (in PBS containing 2% horse serum and 0.3% Triton X-100), or secondary antibodies, was performed for 1 h at room temperature. Each step was followed by three washes in PBS. The tissues were applied to slides, mounted with Immu-mount (9990402, from Thermo Scientific), and sealed with cover-slips. For staining of sectioned brains, two different tissue preparation protocols (paraffin embedded or microtomed free-floating sections) were applied, as previously described (Baruch et al, 2013; Kunis et al, 2013). […] Microscopic analysis, was performed using a fluorescence microscope (E800; Nikon) or laser-scanning confocal microscope (Carl Zeiss, Inc.). The fluorescence microscope was equipped with a digital camera (DXM 1200F; Nikon), and with either a 20×NA 0.50 or 40×NA 0.75 objective lens (Plan Fluor; Nikon). […] For quantification of staining intensity, total cell and background staining was measured using ImageJ software (NIH), and intensity of specific staining was calculated, as previously described (Burgess et al, 2010). […]
# From each brain, 6 μm coronal slices were collected, and eight sections per mouse, from four different pre-determined depths throughout the region of interest (dentate gyrus or cerebral cortex) were immunostained. […]
# 5XFAD AD-Tg mice [2] = assay: GFAP immunostaining (hippocampal astrogliosis) in 5XFAD AD-Tg mice; assay type: in vivo, mouse; conditions: AD-Tg/Foxp3-DTR+ mice, 3 weeks after last DTx injection
# Procedure: Tissue processing and immunohistochemistry were performed on paraffin embedded sectioned mouse (6 μm thick) and human (10 μm thick) brains. For human ICAM-1 staining, primary mouse anti-ICAM (1:20 Abcam; ab2213) antibody was used. Slides were incubated for 10 min with 3% H2O2, and a secondary biotin-conjugated anti-mouse antibody was used, followed by biotin/avidin amplification with Vectastain ABC kit (Vector Laboratories). Subsequently, 3,3′-diaminobenzidine (DAB substrate) (Zytomed kit) was applied; slides were dehydrated and mounted with xylene-based mounting solution. For tissue stainings, mice were transcardially perfused with PBS prior to tissue excision and fixation. CP tissues were isolated under a dissecting microscope (Stemi DV4; Zeiss) from the lateral, third, and fourth ventricles of the brain. […] Microscopic analysis, was performed using a fluorescence microscope (E800; Nikon) or laser-scanning confocal microscope (Carl Zeiss, Inc.). The fluorescence microscope was equipped with a digital camera (DXM 1200F; Nikon), and with either a 20×NA 0.50 or 40×NA 0.75 objective lens (Plan Fluor; Nikon). […] For quantification of staining intensity, total cell and background staining was measured using ImageJ software (NIH), and intensity of specific staining was calculated, as previously described (Burgess et al, 2010). […]
# 5XFAD AD-Tg mice [3] = assay: Flow cytometry of CP IFN-γ-expressing immune cells in 5XFAD AD-Tg mice; assay type: in vivo, mouse; conditions: weekly-GA, end of 1st week (two GA injections)
# Procedure: as §1
# [4] = system: APP/PS1 mouse model of AD; conditions: weekly administration regimen; cited from earlier work
Substance,"depletion of GFP-expressing FoxP3+CD4+ Treg cells (Foxp3+ Tregs; blood and spleen, Foxp3.LuciDTR mice, DTx 8 ng/g i.p. daily for 4 days) [%]","depletion of Foxp3+ cells (Foxp3+ Tregs; splenocytes of AD-Tg/Foxp3-DTR+/− mice, 1 day after last of 4 daily i.p. DTx injections) [%]",cerebral Aβ plaque burden in hippocampal dentate gyrus and cerebral cortex (5th layer) (5XFAD AD-Tg mice [1]),hippocampal gliosis (GFAP immunostaining) (5XFAD AD-Tg mice [2]),IFN-γ-producing cells at the CP (5XFAD AD-Tg mice [3]),effect in the APP/PS1 mouse model of AD [4]
Diphtheria toxin [DTx],> 99,~99,reduced,reduced astrogliosis; also recorded: reduction in hippocampal gliosis,–,–
Glatiramer acetate [GA],–,–,–,–,increase,therapeutic effect
